Assay results taken from patent US8703951B2, “Synthesis of 4H-benzo[D]pyrrolo[1,2-A]thiazoles and indolizino[6,7-b]indole derivatives and their use as antitumor therapeutic agents” (Academia Sinica, priority 2011, dated 2014).
Where two headings read alike, the source gives them in different places. Blank lines part the entries; values can stand above or below the compound they belong to.

Tests used:
[1] = test system: human lymphoblastic leukemia (CCRF-CEM); assay: In vitro cytotoxicity, XTT assay, CCRF-CEM; assay type: cell-based
Description: (§1) Human colon carcinoma HCT-116 cells and human prostate adenocarcinoma PC-3 cells were obtained from American Type Culture Collection (ATCC, Rockville, Md.). Human mammary carcinoma (MX-1) tumor cells were obtained from MSKCC cell bank. The CCRF-CEM human lymphoblastic leukemia cells and their vinblastine resistant subline (CCRF-CEM/VBL, 680-fold resistance in vitro) were obtained from Dr. William Beck of the University of Illinois, Chicago, and CCRF-CEM/Taxol (330-fold resistance in vitro). Resistant cells CCRF-CEM/taxol were produced by exposing the parent cells to increasing sublethal concentration (IC50-IC90) of paclitaxel for six months.
(§2) In preparation for in vitro cytotoxicity assays, cells were cultured at an initial density 2−5×10^4 cells per milliliter. They were maintained in a 5% CO2-humidified atmosphere at 37° C. in RPMI medium 1640 (GIBCO/BRL) containing penicillin (100 units/mL), streptomycin (100 μg/mL, GIBCO/BRL), and 5% heat-inactivated FBS. For cells grown in suspension (such as CCRF-CEM and its sublines), cytotoxicity was measured, by using XTT microculture method^23 in 96-well microtiter plates.
(§3) The cytotoxic effects of the newly synthesized compounds were determined in T-cell acute lymphocytic leukemia (CCRF-CEM) and their resistant subcell lines (CCRF-CEM/Taxol and CCRF-CEM/VBL) by the XTT assay^24 and human solid tumor cells (i.e. breast carcinoma MX-1 and colon carcinoma HCT-116) by the SRB assay^25 in a 72 h incubation using a microplate spectrophotometer as described previously.^25 After the addition of phenazine methosulfate-XTT solution, incubated at 37° C. for 6 h and absorbance at 450 and 630 nm was detected on a microplate reader (EL 340). The cytotoxicity of the newly synthesized compounds against non-small cell lung carcinoma H1299, prostate cancer PC3, oral cancer OECM-1 and glioma U87 were determined by the Alamar blue assay^26 in a 72 h incubation using a microplate spectrophotometer as described previously. After the addition of alamar blue solution, it was incubated at 37° C. for 6 h. Absorbance at 570 and 600 nm was detected on a microplate reader. IC50 values were determined from dose-effect relationship at six or seven concentrations of each drug using the CompuSyn software by Chou and Martin^27 based on the median-effect principle and plot.^28,29 Ranges given for Cisplatin were mean±SE (n=4).

CCRF-CEM/Taxol = assay: In vitro cytotoxicity, XTT assay, CCRF-CEM/Taxol; assay type: cell-based, human; conditions: Table 5; for IC50: Taxol-resistant subline, XTT, 72 h, read-out: Cell Growth inhibition (IC50 μM) CCRF-CEM/Taxol; for fold of cross-resistant vs IC50 of the parent cell line, CCRF-CEM/Taxol: number in brackets
Description: as §1, §2, §3

CCRF-CEM/VBL = assay: In vitro cytotoxicity, XTT assay, CCRF-CEM/VBL; assay type: cell-based, human; conditions: Table 5; for IC50: vinblastine-resistant subline, XTT, 72 h, read-out: Cell Growth inhibition (IC50 μM) CCRF-CEM/VBL; for fold of cross-resistant vs IC50 of the parent cell line, CCRF-CEM/VBL: number in brackets
Description: as §1, §2, §3

breast carcinoma MX-1 = assay: In vitro cytotoxicity, SRB assay, MX-1; assay type: cell-based, human
Description: as §1, §2, §3

colon carcinoma HCT-116 = assay: In vitro cytotoxicity, SRB assay, HCT-116; assay type: cell-based, human
Description: as §1, §2, §3

[2] = test system: non-small cell lung carcinoma H1299; assay: In vitro cytotoxicity, Alamar blue assay, H1299; assay type: cell-based, human
Method: (§4) Prostate cancer PC3, non-small cell lung carcinoma cells H1299, and human glioma cells U87 were purchased from the American Type Culture Collection (Rockville, Md.). OECM-1 (human gingival squamous cell carcinoma cells) was obtained from Dr C.-L. Meng (National Defense Medical College, Taiwan).^22
as §2, §3

prostate cancer PC3 = assay: In vitro cytotoxicity, Alamar blue assay, PC3; assay type: cell-based, human; conditions: Table 6, 72 h
Method: as §4, §2, §3

oral cancer OECM-1 = assay: In vitro cytotoxicity, Alamar blue assay, OECM-1; assay type: cell-based, human
Method: as §4, §2, §3

glioma U87 = assay: In vitro cytotoxicity, Alamar blue assay, U87; assay type: cell-based, human
Method: as §4, §2, §3

linearized pBR322DNA = assay: DNA cross-linking, alkaline agarose gel shift assay; assay type: biochemical; conditions: 1, 10, and 20 μM; FIG. 8
Method: Formation of DNA cross-linking was analyzed by alkaline agarose gel electrophoresis assay. […] The reaction mixture was incubated at 37° C. for 2 h. At the end of reaction, the plasmid DNA was linearized by digestion with BamHI and followed by precipitation with ethanol. The DNA pellets were dissolved and denatured in alkaline buffer (0.5 N NaOH-10 mM EDTA). An aliquot of 20 μL of DNA solution (1000 ng) was mixed with 4 μL of 6× alkaline loading dye and then electrophoretically resolved on a 0.8% alkaline agarose gel with NaOH-EDTA buffer at 4° C. The electrophoresis was carried out at 18 V for 22 h. After staining the gels with an ethidium bromide solution, the DNA was then visualized under UV light.

[3] = Homo sapiens, CCRF-CEM, Table 5, 72 h incubation, read-out: Cell Growth inhibition (IC50 μM) CCRF-CEM
[4] = Homo sapiens, NCI-H1299, Table 6, 72 h
[5] = Homo sapiens, OECM1, Table 6, 72 h
[6] = Table 5, 72 h incubation, read-out: Cell Growth inhibition (IC50 μM) CCRF-CEM
[7] = Homo sapiens, CCRF-CEM, Table 7, 72 h, read-out: IC50 (μM) CCRF/CEM
[8] = Homo sapiens, HCT-116, Table 7, 72 h

SMILES: OCc1c(CO)c2sc3ccccc3n2c1-c1ccc(Cl)cc1 [Compound 18c, (1-(4-Chlorophenyl)benzo[d]pyrrolo[2,1-b]thiazole-2,3-diyl)dimethanol]
- IC50 [1, 3]: 2.61 ± 0.03 µM
- IC50 (CCRF-CEM/Taxol; Homo sapiens, CCRF-CEM): 5.22 ± 0.026 µM
- fold of cross-resistant vs IC50 of the parent cell line, CCRF-CEM/Taxol (CCRF-CEM/Taxol): 2.00 ×
- IC50 (CCRF-CEM/VBL; Homo sapiens, CCRF-CEM): 4.09 ± 0.025 µM
- fold of cross-resistant vs IC50 of the parent cell line, CCRF-CEM/VBL (CCRF-CEM/VBL): 1.56 ×
- IC50 (breast carcinoma MX-1; Homo sapiens, Table 6, 72 h): 10.4 ± 0.003 µM
- IC50 (colon carcinoma HCT-116; Homo sapiens, HCT-116, Table 6, 72 h): 9.26 ± 0.049 µM
- IC50 [2, 4]: 12.4 ± 0.44 µM
- IC50 (prostate cancer PC3; Homo sapiens): 20.4 ± 3.43 µM
- IC50 (oral cancer OECM-1; [5]): 14.6 ± 1.13 µM
- IC50 (glioma U87; Homo sapiens, Table 6, 72 h): 20.7 ± 2.26 µM
- DNA interstrand cross-linking (linearized pBR322DNA): able to bind covalently (interstrand cross-linking) with DNA

SMILES: OCc1c(CO)c2sc3ccccc3n2c1-c1ccc(Cl)c(Cl)c1 [Compound 18e, (1-(3,4-Dichlorophenyl)benzo[d]pyrrolo[2,1-b]thiazole-2,3-diyl)dimethanol]
- melting point: 159 to 160 °C

SMILES: OCc1c(CO)c2sc3ccccc3n2c1-c1ccc(F)c(Cl)c1 [Compound 18f, (1-(3-Chloro-4-fluorophenyl)benzo[d]pyrrolo[2,1-b]thiazole-2,3-diyl)dimethanol]
- melting point: 178 to 179 °C

SMILES: COc1ccc(-c2c(CO)c(CO)c3sc4ccccc4n23)cc1 [Compound 18g, (1-(4-Methoxyphenyl)benzo[d]pyrrolo[2,1-b]thiazole-2,3-diyl)dimethanol]
- IC50 [1, 3]: 1.13 ± 0.09 µM
- IC50 (CCRF-CEM/Taxol; Homo sapiens, CCRF-CEM): 2.17 ± 0.02 µM
- fold of cross-resistant vs IC50 of the parent cell line, CCRF-CEM/Taxol (CCRF-CEM/Taxol): 1.9 ×
- IC50 (CCRF-CEM/VBL; Homo sapiens, CCRF-CEM): 2.63 ± 0.031 µM
- fold of cross-resistant vs IC50 of the parent cell line, CCRF-CEM/VBL (CCRF-CEM/VBL): 2.30 ×
- IC50 [2, 4]: 9.94 ± 1.87 µM
- IC50 (prostate cancer PC3; Homo sapiens): 8.81 ± 1.2 µM
- IC50 (oral cancer OECM-1; [5]): 5 ± 0.78 µM
- IC50 (glioma U87; Homo sapiens, Table 6, 72 h): 18.1 ± 3.71 µM
- DNA interstrand cross-linking (linearized pBR322DNA): able to bind covalently (interstrand cross-linking) with DNA

SMILES: COc1ccc(-c2c(CO)c(CO)c3sc4ccccc4n23)cc1OC [Compound 18h, (1-(3,4-Dimethoxyphenyl)benzo[d]pyrrolo[2,1-b]thiazole-2,3-diyl)dimethanol]
- melting point: 215 to 216 °C

SMILES: COc1cc(-c2c(CO)c(CO)c3sc4ccccc4n23)cc(OC)c1OC [Compound 18i, (1-(3,4,5-Trimethoxyphenyl)benzo[d]pyrrolo[2,1-b]thiazole-2,3-diyl)dimethanol]
- melting point: 160 to 161 °C

SMILES: CCNC(=O)OCc1c(COC(=O)NCC)c2sc3ccccc3n2c1-c1ccc(OC)cc1 [Compound 19g, (1-(4-Methoxyphenyl)benzo[d]pyrrolo[2,1-b]thiazole-2,3-diyl)bis(methylene)bis(ethylcarbamate)]
- IC50 [1, 6]: 0.19 ± 0.002 µM
- IC50 (CCRF-CEM/Taxol): 0.37 ± 0.001 µM
- fold of cross-resistant vs IC50 of the parent cell line, CCRF-CEM/Taxol (CCRF-CEM/Taxol): 1.90 ×
- fold of cross-resistant vs IC50 of the parent cell line, CCRF-CEM/VBL (CCRF-CEM/VBL): 2.20 ×
- IC50 (CCRF-CEM/VBL): 0.42 ± 0.003 µM
- IC50 ([2]; Table 6, 72 h): 8.85 ± 1.53 µM
- IC50 (prostate cancer PC3): 17.9 ± 3.59 µM
- IC50 (oral cancer OECM-1; Table 6, 72 h): 9.39 ± 1.9 µM
- IC50 (glioma U87; Table 6, 72 h): 29.5 ± 4.86 µM
- DNA interstrand cross-linking (linearized pBR322DNA): able to bind covalently (interstrand cross-linking) with DNA

SMILES: CC(C)NC(=O)OCc1c(COC(=O)NC(C)C)c2sc3ccccc3n2c1-c1ccc(F)c(F)c1 [Compound 20d, (1-(3,4-Difluorophenyl)benzo[d]pyrrolo[2,1-b]thiazole-2,3-diyl)bis(methylene)bis(iso-propylcarbamate)]
- IC50 [1, 6]: 0.33 ± 0.001 µM
- IC50 (CCRF-CEM/Taxol): 0.19 ± 0.004 µM
- fold of cross-resistant vs IC50 of the parent cell line, CCRF-CEM/Taxol (CCRF-CEM/Taxol): 0.57 ×
- fold of cross-resistant vs IC50 of the parent cell line, CCRF-CEM/VBL (CCRF-CEM/VBL): 0.90 ×
- IC50 (CCRF-CEM/VBL): 0.3 ± 0.001 µM
- IC50 (breast carcinoma MX-1; Table 6, 72 h): 1 ± 0.002 µM
- IC50 (colon carcinoma HCT-116; Table 6, 72 h): 0.41 ± 0.005 µM
- IC50 ([2]; Table 6, 72 h): 30.8 ± 6.92 µM
- IC50 (prostate cancer PC3): 29.6 ± 1.83 µM
- IC50 (oral cancer OECM-1; Table 6, 72 h): 15.1 ± 1.34 µM
- IC50 (glioma U87; Table 6, 72 h): 74.9 ± 15.7 µM

SMILES: COc1ccc(-c2c(COC(=O)NC(C)C)c(COC(=O)NC(C)C)c3sc4ccccc4n23)cc1 [Compound 20g, (1-(4-Methoxyphenyl)benzo[d]pyrrolo[2,1-b]thiazole-2,3-diyl)bis(methylene)bis(iso-propylcarbamate)]
- IC50 [1, 6]: 0.14 ± 0.002 µM
- IC50 (CCRF-CEM/Taxol): 0.17 ± 0.004 µM
- fold of cross-resistant vs IC50 of the parent cell line, CCRF-CEM/Taxol (CCRF-CEM/Taxol): 1.17 ×
- fold of cross-resistant vs IC50 of the parent cell line, CCRF-CEM/VBL (CCRF-CEM/VBL): 1.47 ×
- IC50 (CCRF-CEM/VBL): 0.25 ± 0.008 µM
- IC50 ([2]; Table 6, 72 h): 8.19 ± 1.74 µM
- IC50 (prostate cancer PC3): 17.5 ± 0.8 µM
- IC50 (oral cancer OECM-1; Table 6, 72 h): 7.23 ± 1.57 µM
- IC50 (glioma U87; Table 6, 72 h): 60.9 ± 13.4 µM
- DNA interstrand cross-linking (linearized pBR322DNA): able to bind covalently (interstrand cross-linking) with DNA

Further lines, with some results ahead:

- melting point: 122 to 123 °C
SMILES: Cn1c2c(c3ccccc31)Cc1c(CO)c(CO)c(-c3ccccc3)n1C2 [Compound 26b, (3-(phenyl)-6-methyl-6,11-dihydro-5H-indolizino[6,7-b]indole-1,2-diyl)dimethanol]

- melting point: 240 to 241 °C
SMILES: Cn1c2c(c3ccccc31)Cc1c(CO)c(CO)c(-c3ccc(F)cc3)n1C2 [Compound 26c, (3-(4-Fluorophenyl)-6-methyl-6,11-dihydro-5H-indolizino[6,7-b]indole-1,2-diyl)dimethanol]

- melting point: 238 to 239 °C
SMILES: Cn1c2c(c3ccccc31)Cc1c(CO)c(CO)c(-c3ccc(Cl)cc3)n1C2 [Compound 26d, (3-(4-Chlorophenyl)-6-methyl-6,11-dihydro-5H-indolizino[6,7-b]indole-1,2-diyl)-dimethanol]
- IC50 [1, 7]: 4.58 ± 0.378 µM
- IC50 (breast carcinoma MX-1; Homo sapiens, Table 7, 72 h): 11.3 ± 0.42 µM
- IC50 (colon carcinoma HCT-116; [8]): 13.49 ± 0.088 µM

- melting point: 195 to 196 °C
SMILES: Cn1c2c(c3ccccc31)Cc1c(CO)c(CO)c(-c3ccc(F)c(F)c3)n1C2 [Compound 26e, (3-(3,4-Difluorophenyl)-6-methyl-6,11-dihydro-5H-indolizino[6,7-b]indole-1,2-diyl)dimethanol]

- melting point: 200 to 201 °C
SMILES: Cc1c(CO)c(CO)c2n1Cc1c(c3ccccc3n1C)C2 [Compound 33a, [3,6-Dimethyl-6,11-dihydro-5H-indolizino[6,7-b]indole-1,2-diyl]dimethanol]
- IC50 [1, 7]: 0.042 ± 0.0003 µM
- IC50 (breast carcinoma MX-1; Homo sapiens, Table 7, 72 h): 0.22 ± 0.019 µM
- IC50 (colon carcinoma HCT-116; [8]): 0.12 ± 0.001 µM
- IC50 ([2]; Homo sapiens, NCI-H1299, Table 7, 72 h): 3.96 ± 1.79 µM
- IC50 (glioma U87; Homo sapiens, Table 7, 72 h): 6.54 ± 2.16 µM
